# Test results reported in patent US20240239895A1, “COMBINATION THERAPY WITH A RAF INHIBITOR AND A PD-1 AXIS INHIBITOR” (Genentech, Inc., priority 2021, published 2024).
# Experiments:
# [1] = tested on: tumor infiltrated CD3+CD8+ T cells; test: flow cytometry of tumor infiltrated CD3+CD8+ T cells, K1735 model; format: in vivo, mouse; settings: belvarafenib 15 mg/kg oral QDx21; tumor tissue at end of experiment
# Protocol: Flow cytometry was used for tumor infiltrated CD3+CD8+ T cells analysis using BD FACSCanto™ IL (BD Biosciences) and FlowJo™ v 10.6.2 software (BD Biosciences). At the end of the experiment, tumor tissue, excluding mono and combination therapy groups using belvarafenib 7.5 mg/kg, were collected for evaluation of pharmacodynamics. Tumors were surgically dissected, washed twice with phosphate-buffered saline (PBS), and then chopped into 1 mm3 pieces. The chopped tumor pieces were digested in 7 mL of dissociation medium (RPMI medium with 10% FBS, collagenase type II at 2 mg/mL, collagenase type IV at 2 mg/mL, and DNase I at 1 mg/mL) for 30 minutes at 37° C., and filtered through a 70 μm cell strainer (BD Pharm, USA). The filtered cells were then washed twice with PBS. Remaining red blood cells were lysed using ammonium-chloride-potassium (ACK) solution. The cells, which had dissociated into single cells, were stained with Fe block (anti CD16/32, Ref. 14-0161-82, Invitrogen, USA) at 4° C. for 15 minutes to prevent nonspecific antibody binding. The cells were then stained with appropriate antibodies at 4° C. for 30 minutes. To assess the presence of CD3+CD8+ T cell population, cells were stained with PE Cy7-conjugated anti-CD3e (1:100 dilution) (clone: 145-2C11, Invitrogen, USA) and FITC-conjugated anti-CD8a (1:100 dilution) (clone: 53-6.7, Invitrogen, USA).
# [2] = tested on: K1735 melanoma cells carrying the NRASG13D mutation; test: K1735 syngeneic mouse model, tumor growth; format: in vivo
# Excerpt: Example 1 evaluated the efficacy of belvarafenib monotherapy, atezolizumab monotherapy, a combination therapy of belvarafenib and atezolizumab in a mutant K1735 subcutaneous mouse model.
# The mouse strain was C3H/HeNCrlOri which is widely used for the K1735 syngeneic model. The mice were supplied by Orient Bio Inc., Korea.
# The cell line was K1735 and was supplied by the American Type Culture Collection (ATCC). The K1735 cells are melanoma cells carrying the NRASG13D mutation. The cell culture in vitro media was Roswell Park Memorial Institute (RPMI) 10% fetal bovine serum (FBS) and incubation was at 5% C02 and 37° C. For the K1735 syngeneic model, cancer cells (1.5×10^8 cells/10 mL) were mixed with Hank's balanced salt solution (HBSS) and injected subcutaneously at 0.1 mL/head. Seven animals per group were treated with the vehicle (control), belvarafenib monotherapy at 7.5 mg/kg, belvarafenib monotherapy at 15 mg/kg, atezolizumab monotherapy at 10 mg/kg, belvarafenib (7.5 mg/kg) and atezolizumab (10 mg/kg) combination therapy, and belvarafenib (15 mg/kg) and atezolizumab (10 mg/kg) combination therapy. The experiment was done using 1st generation tumor tissue.
# Belvarafenib dihydrochloride, 99.6% purity, that was stored at room temperature was used. Dosing was based on active ingredient free base and was corrected for assay and water content. The dosing vehicle was DMSO (5%), cremophore EL (5%), and deionized water (90%). Belvarafenib for dosing was dissolved in the vehicle. Belvarafenib oral doses of 7.5 mg/kg and 15 mg/kg were evaluated as monotherapies and in combination with atezolizumab. Belvarafenib was dose daily for 21 days.
# Atezolizumab (TECENTRIQ©) that was stored at 2-8° C. was used. The dosing vehicle was saline and the dosing concentration was 5 mL/kg. An atezolizumab intravenous dose of 10 mg/kg was evaluated as a monotherapy and in combination with 7.5 mg/kg and 15 mg/kg belvarafenib. Atezolizumab was dosed three times a week for 3 weeks.
# Tumor size. Tumor size was assessed by digital caliper (MITUTOYO CD-15CPX, MonotaRO Singapore, Japan) twice a week during the dosing period and calculated using the formula for an ellipsoid sphere (V=L×S2/2=mm3, where L=long diameter, and S=short diameter). Tumor size was recorded on the day of the body weight measurement and data was recorded on a tumor volume record sheet.
# Relative tumor volume (RTV). RTV(%)=tumor volume/initial tumor volume×100.
# Tumor Growth (TG). TG (%)=RTVdayx/RTVday0×100.
# Relative tumor growth (RTG). The ratio of mean tumor volume on last measurement day to the mean tumor volume on Day 0.
# Inhibition rate (IR). Inhibition of tumor growth was calculated relative to vehicle-treated controls. IR (%)=(1−mean relative tumor weight in treated group/mean relative tumor weight in control group)×100.
# Maximum inhibition rate (MIR). MIR was the highest recorded IR (%) among the measured inhibition rate (%).
# Statistical analysis of tumor size was performed with GraphPad Prism version 6 (GraphPad software, Inc., USA). Values were expressed as S.E.M. The significance of differences among multiple groups was assessed using a 2-way ANOVA. Post hoc pairwise comparison between groups was tested for significance using Dennett's method.
# [3] = tested on: BRAF- or RAS-mutant melanoma, NSCLC, CRC, and thyroid cancer cell lines; test: growth of cancer cell lines in vitro; format: cell-based
# [4] = tested on: BRAF- and NRAS-mutant melanoma, KRAS mutant NSCLC, BRAF mutant CRC xenografts; test: mouse xenograft models, monotherapy; format: in vivo
# Excerpt: The in vitro antitumor effects of belvarafenib have translated into efficacy in various mouse xenograft models.
# [5] = Phase I relative bioavailability and food effect study in healthy subjects; format: in vivo; settings: 200 mg single dose
# Protocol: In another Phase I, single dose, randomized, crossover relative bioavailability and food effect study in healthy subjects, the influence of a formulation change from the Phase I to Phase II tablet on belvarafenib exposure was evaluated. A total of 18 healthy subjects were enrolled in the study and received the following randomized treatments: one 150-mg and one 50-mg Phase I tablet in a fed state, two 100-mg Phase II tablets in a fed state, or two 100-mg Phase II tablets in a fasted state, with a 18-day washout between treatments.
# [6] = tested on: phosphorylation of MEK and ERK in the MAPK pathway; test: MEK and ERK phosphorylation in cancer cell lines; format: cell-based; settings: BRAF- or RAS-mutant melanoma, NSCLC, and CRC cell lines
# [7] = K1735 syngeneic mouse model, body weight and clinical signs; format: in vivo
# Protocol: Body weight. Body weight measurement was performed twice a week during the dosing period.
# Relative body weight. Relative body weight (%)=body weight (g)/initial body weight (g)×100.
# Maximum weight loss (MWL). MWL was the highest recorded weight loss (%) among the measured weight loss (%).
# [8] = belvarafenib 7.5 mg/kg oral QDx21
# [9] = belvarafenib 15 mg/kg oral QDx21
structure (smiles),measurement,setting,value
"Cc1ccc2c(Nc3cccc(Cl)c3F)nccc2c1NC(=O)c1csc2c(N)ncnc12 [Belvarafenib, 4-amino-N-(1-((3-chloro-2-fluorophenyl)amino)-6-methylisoquinolin-5-yl)thieno[3,2-d]pyrimidine-7-carboxamide]",CD3^+CD8^+ T cells (%),[1],1.27%
same,MIR / Max Inhib. (maximum inhibition rate),[2]; [8],48.2%
same,MTV21 (mean tumor volume on day 21 of treatment),[2]; [8],2014.8 mm^3
same,RTG (relative tumor growth),[2]; [8],12.2
same,MIR / Max Inhib. (maximum inhibition rate),[2]; [9],54.7%
same,MTV21 (mean tumor volume on day 21 of treatment),[2]; [9],1816.8 mm^3
same,RTG (relative tumor growth),[2]; [9],11.0
same,"IR (Day 21) (inhibition rate, tumor growth inhibition)",[2]; [8],48.2%
same,"IR (Day 21) (inhibition rate, tumor growth inhibition)",[2]; [9],54.7%
same,inhibition of cell line growth,[3],inhibit the growth
same,inhibition of tumor growth,[4],dose-dependent inhibition of tumor growth
same,"serious adverse events, adverse events of special interest, deaths",[5],"No serious adverse events, adverse events of special interest, or deaths were reported"
same,inhibition of phosphorylation of MEK and ERK,[6],inhibits phosphorylation of MEK and ERK
same,MWL / Max Wt. (maximum weight loss),[7]; [8],2.8%
same,MWL / Max Wt. (maximum weight loss),[7]; [9],2.2%
